Measured values published in patent US20090061022A1, “Pharmaceutical composition comprising arsenite for the treatment of malignancy” (priority 2004, published 2009).

Legend:
[1] = Maximum tolerated dose assessment after daily oral gavages for 14 days in the rat; format: in vivo, Wistar rats; conditions: for Findings / Findings (mortality): rat; for MTD (or LD10 value): rats, oral once daily 14 days, calculated
Method: The objective of this oral toxicity study was to establish a MTD after repeated administration of sodium meta-arsenite to rats.
Ampoules of sodium meta-arsenite (dissolved in 10% (w/v) glucose in water) in concentrations of 1.2, 2.2, 3.8, 7.0 and 12.6 mg/ml were stored in a refrigerator in the dark. Based on the previous study, the following doses were selected: 6, 11, 19, and 35 and 63 mg/kg/day. Each dose was administered daily by oral gavages to groups of 4 male and 4 female Wistar rats for 14 days, followed by a 14-day recovery period.
Clinical signs were evaluated daily, and body weights were recorded twice weekly. Scheduled termination was performed on day 29 (after 14 days of recovery). Macroscopic examination was performed on all animals.

[2] = Subacute toxicity study, daily oral gavages for 14 days in the mouse, 28-day recovery; format: in vivo, CD-1 male mice; conditions: for Hematology: day 5 and end of treatment
Method: The nature and purpose of this subacute oral toxicity study was to determine the extent to which cumulative toxicity occurred with repeated administration of sodium meta-arsenite for 14 days to mice. Moreover, the study was intended to define the most likely target organs for toxicity and to investigate the reversibility of toxicity.
Ampoules of sodium meta-arsenite (dissolved in 10% (w/v) glucose in water) in concentrations of 0, 1.6 and 3.2 mg/ml were stored in a refrigerator in the dark. Based on the previous study, the following doses were selected: 0, 16 (½ MTD) and 32 mg/kg/day (MTD). Each dose was administered daily by oral gavages to groups of 20 CD-1 male mice for 14 days, followed by a 28-day recovery period.
Ten animals of each group were killed on day 15 (main groups). The remaining animals (recovery groups) were killed on day 43 after a recovery period of 28 days. Blood samples were collected from all main group animals on day 5 to determine effects on the hematology. Blood samples were also collected at the end of the treatment period (day 15, all main group animals) and after recovery (day 43, all recovery group animals) for hematology and clinical biochemistry.
Clinical signs were evaluated daily and body weights were recorded twice weekly. Macroscopic examination was performed at termination. Organ weight measurements were performed at scheduled termination, i.e. day 15 (main groups) and day 43 (recovery groups). Microscopic examination was performed on a selection of tissues of both main and recovery animals.

RXF 944LX = assay: Dose finding study in human renal cancer model RXF 944LX in nude mice (i.p. days 0, 7, 14); conditions: for BW loss % (day) / Drug-related deaths / Rating / SGD (specific growth delay) / T/C %: days 0, 7, 14
Excerpt: In a dose finding study, the potential anticancer activity of sodium meta-arsenite and arsenic acid sodium salt versus arsenic trioxide was examined in the human renal cancer model, RXF 944LX.
Cancer fragments (1-2 mm in diameter), obtained from xenografts in serial passage in nude mice, were implanted subcutaneously (S.C.) in a flank of male NRMI nude mice (one fragment per mouse). Mice with appropriate cancer volumes (5-7 mm in diameter) were randomly distributed to treatment and control groups (4 mice/group). The start of treatment was day 0. Cancer volume and body weights were measured at least twice per week.
1) Sodium meta-arsenite (3, 10, 30 mg/kg/day), 2) Arsenic acid sodium salt (3, 10, 30 mg/kg/day) and 3) Arsenic trioxide (3, 10, 30 mg/kg/day) were administered intraperitoneally (i.p.) once daily on days 0, 7 and 14.
Stock solution of sodium meta-arsenite and arsenic acid sodium salt (3 mg/ml) were prepared in 5% (w/v) dextrose solution, respectively, to minimize acute arsenic toxicity. For arsenic trioxide, 9 mg of arsenic trioxide was dissolved in 1M NaOH (75 μl) followed by mixing with sterile aqua injectabilia (2175 μl) and sterile 20% (w/v) dextrose in water (500 μl). Further dilution to the desired concentration was done with a 5% dextrose solution to give a final concentration of 3 mg/ml.
The cancer volume of each animal was determined by two-dimensional measurement using calipers. The volume was calculated according to the formula: (a×b^2)×0.5; wherein a and b represent two perpendicular diameters in which a (length) is the larger diameter and b (width) the smaller diameter.
Relative cancer volumes (RCV) were calculated for each individual cancer by dividing the cancer volume on day X by the cancer volume on day 0 multiplied by 100%. The cancer volume of a treatment group was expressed as the median RCV of all mice of the group. Median RCV values were used for drawing growth curves and treatment evaluation. Optimal cancer growth inhibition at a particular day within the treatment period was calculated from the median RCV values of the treated (T) versus the controlled (C) group multiplied by 100%. A T/C value<50% was considered as anti-cancer activity.

[3] = 10 mg/kg i.p., listed as sodium meta-arsenite

Structure (SMILES): O=[As][O-].[Na+] [Sodium meta-arsenite, sodium meta-arsenite]
- Findings ([1]; 6 mg/kg/day oral gavage 14 days): No findings were noted
- Findings ([1]; 11 mg/kg/day oral gavage 14 days): Hunched posture was noted in one male from day 7-13 of treatment, diarrhea was observed for one male on day 6
- Findings ([1]; 19 mg/kg/day oral gavage 14 days): Hunched posture (day 6-14 of treatment) was noted in 2 males
- Findings (mortality) ([1]; 35 mg/kg/day oral gavage 14 days): One male was found dead on day 13 of treatment, all females died between days 3 to 6
- Findings (mortality) ([1]; 63 mg/kg/day oral gavage 14 days): All animals died on days 2 to 5
- MTD (or LD10 value) ([1]; females): 25 mg/kg/day
- MTD (or LD10 value) ([1]; males): 33 mg/kg/day
- Clinical signs ([2]; 16 mg/kg/day oral 14 days, mouse): swelling of the abdomen and piloerection
- Hematology ([2]; 16 mg/kg/day): lower erythrocyte count, hemoglobin and haematocrit
- Microscopic examination ([2]; 16 mg/kg/day, end of treatment): atrophy of the lymphoid organs (Peyer's patches, thymus), ulceration and hyperplasia of the fore stomach epithelium, necrosis of liver and gall bladder and myeloid hyperplasia and congestion of the sternal bone marrow
- Necropsy findings ([2]; 16 mg/kg/day, end of treatment): crateriform retractions of the fore stomach
- Clinical signs ([2]; 32 mg/kg/day oral 14 days, mouse): swelling of the abdomen and piloerection
- Premature mortality during the treatment phase, males ([2]; 32 mg/kg/day oral 14 days, groups of 20 male mice): 7
- Necropsy findings ([2]; 32 mg/kg/day, after treatment): crateriform retractions of the forestomach and a reduced thymus size
- Hematology ([2]; 32 mg/kg/day): Lower leucocyte count, platelet count, affected erythrocyte parameters (lower erythrocyte count, hemoglobin and haematocrit) and low reticulocyte counts
- Clinical biochemistry ([2]; 32 mg/kg/day, end of treatment): Decreased glucose, total protein and albumin concentrations and increased sodium, calcium and inorganic phosphorus concentrations
- Microscopic examination ([2]; 32 mg/kg/day, end of treatment): atrophy of the lymphoid organs (mesenteric and mandibular lymph nodes, Peyer's patches, spleen and thymus), ulceration and hyperplasia of the fore stomach epithelium, ulceration of the caecum, necrosis of the liver and gall bladder
- Organ weights ([2]; 32 mg/kg/day, end of treatment): Decreased absolute and relative spleen and thymus weight and increased relative liver weight
- Main target organs for toxicity ([2]; 16 and 32 mg/kg/day oral 14 days, mouse): bone marrow, lymphoid organs and the forestomach
- BW loss % (day) (RXF 944LX; 3 mg/kg i.p.): +6.8 (21) %
- Drug-related deaths (RXF 944LX; 3 mg/kg i.p.): 0/4
- Rating (RXF 944LX; 3 mg/kg i.p.): + (+T/C < 50)
- SGD (specific growth delay) (RXF 944LX; 3 mg/kg i.p.): 0.4
- T/C % (RXF 944LX; 3 mg/kg i.p.): 19%
- BW loss % (day) (RXF 944LX; 10 mg/kg i.p.): +8.7 (21) %
- Drug-related deaths (RXF 944LX; 10 mg/kg i.p.): 0/4
- Rating (RXF 944LX; 10 mg/kg i.p.): − (−T/C ≧ 50%)
- SGD (specific growth delay) (RXF 944LX; 10 mg/kg i.p.): −0.1
- T/C % (RXF 944LX; 10 mg/kg i.p.): 51%
- BW loss % (day) (RXF 944LX; [3]): no lethality or body weight loss was observed
- Drug-related deaths (RXF 944LX; [3]): no lethality or body weight loss was observed
- Drug-related deaths (RXF 944LX; 30 mg/kg i.p.): 4/4
- Drug-related deaths (RXF 944LX; 30 mg/kg i.p., listed as sodium meta-arsenite): died within a few days after the first injection
- Maximum Tolerated Dose (MTD) (RXF 944LX; i.p. once daily on days 0, 7 and 14, RXF 944LX bearing nude mice): 10 mg/kg/day
